Values joined by “and” are separate entries in the source; they are usually repeats but may differ in a detail not shown here. Identical values can stand only once.
Experiments:
Assay type in all cases: binding
[1] = test system: ciprofloxacin antibody; test: Competitive ELISA for ciprofloxacin, pre-reaction mode vs direct addition (Embodiment 1)
Protocol: Coat the ELISA plate with ciprofloxacin BSA conjugate, 1 μg/mL, 100 μL per well, blocking overnight at 4° C. Then block with 3% skimmed milk powder the following day. Prepare ciprofloxacin standards, 0 ppb, 1 ppb, 3 ppb, 9 ppb, 27 ppb, 81 ppb with the wash buffer (PBST).
The experiment is divided into two groups.
Group 1: pre-incubate 60 μL standards and 60 μL diluted ciprofloxacin antibody for 20 minutes at 37° C.; then take 100 μL reaction product and add to the ELISA plate covering with ciprofloxacin conjugate, react for 30 minutes at 37° C.; wash the plate, add HRP labeled secondary antibody, react for 30 minutes at 37° C., wash the plate; add chromogenic agent 100 μL, react for 15 minutes at 37° C.; and finally add 50 μL termination solution, then measure the OD450 with a microplate reader.
Group 2: add into the ELISA plate covering with ciprofloxacin conjugate with 50 μL standard and 50 μL antibody, in the sequence; react for 30 minutes at 37° C., wash the plate; add HRP labeled secondary antibody, react for 30 minutes at 37° C., wash the plate; add chromogenic agent 100 μL, react for 15 minutes at 37° C.; and finally add 50 μL termination solution, then measure OD450 with a microplate reader.

[2] = test system: ciprofloxacin antibody; test: Competitive ELISA for ciprofloxacin, different pre-reaction times (Embodiment 3); details: re-reaction 1 min, 6 times
Protocol: (§1) Coat the ELISA plate with ciprofloxacin BSA conjugate, 1 μg/mL, 100 μL per well, blocking overnight at 4° C. Then block with 3% skimmed milk powder the following day. Prepare ciprofloxacin standards, 0 ppb, 1 ppb, 5 ppb, and 10 ppb with wash buffer.
The experiment is divided into 4 groups, each group takes 100 μL standard and 100 μL ciprofloxacin antibody, pre-incubate for 5 minutes, 10 minutes, 15 minutes and 20 minutes at 37° C. in the microplates respectively, then take 20 μL mixture solutions of antibody and standard and add to the ciprofloxacin ELISA plate, react for 1 minute, discard the liquid in the well, and pat dry on absorbent paper, then add 20 μL mixture solution and react for 1 minute, repeat for a total 6 times; wash the plate; add HRP labeled secondary antibody, react for 30 minutes at 37° C., wash the plate; add chromogenic agent 100 μL, react for 15 minutes at 37° C.; and finally add 50 μL termination solution, then measure the OD450.

[3] = test system: ciprofloxacin antibody; test: Competitive ELISA for ciprofloxacin, different re-reaction times (Embodiment 2)
Protocol: as §1
The experiment is divided into 5 groups, each group takes 100 μL standard and 100 μL ciprofloxacin antibody, pre-react for 20 minutes at 37° C. in the microplates, then add to ciprofloxacin ELISA plates:
Take 120 μL pre-reaction product to the ciprofloxacin ELISA plates from group 1, group 2, group 3 and group 4, and resume reacting for 30 minutes, 20 minutes, 10 minutes and 5 minutes respectively; wash the plate; add HRP labeled secondary antibody, react for 30 minutes at 37° C., wash the plate; add chromogenic agent 100 μL, react for 15 minutes at 37° C.; and finally add 50 μL termination solution, then measure the OD450.
Take 20 μL pre-reaction solution of antibody and standard from group 5 and add to the ciprofloxacin ELISA plate, react for 1 minute, discard the liquid in the well, and pat dry on absorbent paper, then add 20 μL mixture solution and react for 1 minute, repeat for 6 times altogether; wash the plate; add HRP labeled secondary antibody, react for 30 minutes at 37° C., wash the plate; add chromogenic agent 100 μL, react for 15 minutes at 37° C.; and finally add 50 μL termination solution, then measure the OD450.

[4] = test system: Ractopamine antibody; test: Competitive ELISA for Ractopamine (Embodiment 4)
Protocol: Preparing the Ractopamine microplate: Ractopamine coating antigen is added to the microplate, 100 μL/well, react for 2 hours at 37° C.; discard the liquid in the well; add blocking solution into the microplate, 100 μL/well, blocking for 1 hour at 37° C.; wash 3 times with wash buffer, leave for reservation. Prepare Ractopamine standards with concentrations of 0 ppb, 0.05 ppb, 0.15 ppb, 0.45 ppb, 1.35 ppb, 4.05 ppb respectively, with wash buffer.
Group 1: add 60 μL the standard and the Ractopamine antibody respectively into a new microplate, pre-react for 20 minutes; take 20 μL mixture solution of antibody and standard into the Ractopamine microplate, react for 1 minute, discard the liquid in the well, and pat dry on absorbent paper, then add 20 μL mixture solution and react for 1 minute, repeat for 5 times altogether, the pre-reaction product added into each well is 100 μL altogether; add HRP labeled secondary antibody, 100 μL per well, react for 45 minutes at 37° C.; wash the plate; add chromogenic agent 100 μL, react for 15 minutes at 37° C.; and finally add 50 μL termination solution, then measure the OD450.
Group 2: add 60 μL the standard and the Ractopamine antibody respectively into a new microplate, pre-react for 20 minutes; take 100 μL mixture solution of antibody and standard into the Ractopamine microplate, react for 30 minutes, discard the liquid in the well, and pat dry on absorbent paper; wash the plate; add HRP labeled secondary antibody, 100 μL per well, react for 45 minutes at 37° C., wash the plate; add chromogenic agent 100 μL, react for 15 minutes at 37° C.; and finally add 50 μL termination solution, then measure the OD450.

[5] = test system: chloramphenicol Mcab; test: Competitive chemiluminescence immunoassay for chloramphenicol (Embodiment 5)
Protocol: • 1) Preparation of the chloramphenicol microplate: add chloramphenicol-BSA conjugate into the ELISA plate, 100 μL per well, overnight at 4° C., wash 3 times with a separation time of 3 minutes each, pat dry; add 5% skimmed milk powder 130 μL per well, block for 1 hour at 37° C., pat dry; wash 3 times with wash buffer, pat dry, leave for reservation. Prepare the chloramphenicol standard solutions with wash buffer: 0 ppb, 0.01 ppb, 0.03 ppb, 0.09 ppb, 0.27 ppb, 0.81 ppb. • 2) Mix the standard and the chloramphenicol Mcab in equal volumes, incubate for 20 minutes at 37° C.; then transfer the reaction product into chloramphenicol microplate; • Group 1: transfer the reaction product into ELISA plate, 20 μL/well, reaction for 1 minute at 37° C., discard liquid in the well, repeat the operation 5 times, and the pre-reaction product added to each well is total 100 μL; • Group 2: one-time transfer the whole 100 μL reaction product into the chloramphenicol microplate, reacting for 20 minute at 37° C.; • 3) Wash 3 times; add HRP labeled secondary antibody, 100 μL per well, react for 45 minutes at 37° C.; wash 5 times; after adding luminous substrate, chemiluminescence measuring instrument is applied to measure the luminous intensity.

SMILES: O=C(O)c1cn(C2CC2)c2cc(N3CCNCC3)c(F)cc2c1=O [Ciprofloxacin]
- OD450 ([1]; Group 1 (20 min pre-incubation, then 30 min on plate), ciprofloxacin 1 ppb): 1.975
- OD450 ([1]; Group 1 (20 min pre-incubation, then 30 min on plate), ciprofloxacin 3 ppb): 1.632
- OD450 ([1]; Group 1 (20 min pre-incubation, then 30 min on plate), ciprofloxacin 9 ppb): 1.448
- OD450 ([1]; Group 1 (20 min pre-incubation, then 30 min on plate), ciprofloxacin 27 ppb): 0.924
- OD450 ([1]; Group 1 (20 min pre-incubation, then 30 min on plate), ciprofloxacin 81 ppb): 0.483
- OD450 ([1]; Group 2 (no pre-incubation, 30 min on plate), ciprofloxacin 1 ppb): 1.904
- OD450 ([1]; Group 2 (no pre-incubation, 30 min on plate), ciprofloxacin 3 ppb): 1.643
- OD450 ([1]; Group 2 (no pre-incubation, 30 min on plate), ciprofloxacin 9 ppb): 1.203
- OD450 ([1]; Group 2 (no pre-incubation, 30 min on plate), ciprofloxacin 27 ppb): 0.952
- OD450 ([1]; Group 2 (no pre-incubation, 30 min on plate), ciprofloxacin 81 ppb): 0.523
- OD450 ([2]; ciprofloxacin 1 ppb, pre-incubation time 5 min): 0.337
- OD450 ([2]; ciprofloxacin 1 ppb, pre-incubation time 10 min): 0.385 and 0.353
- OD450 ([2]; ciprofloxacin 1 ppb, pre-incubation time 15 min): 0.399 and 0.401
- OD450 ([2]; ciprofloxacin 1 ppb, pre-incubation time 20 min): 0.434 and 0.439
- OD450 ([2]; ciprofloxacin 5 ppb, pre-incubation time 5 min): 0.17 and 0.169
- OD450 ([2]; ciprofloxacin 5 ppb, pre-incubation time 10 min): 0.175 and 0.187
- OD450 ([2]; ciprofloxacin 5 ppb, pre-incubation time 15 min): 0.193 and 0.206
- OD450 ([2]; ciprofloxacin 5 ppb, pre-incubation time 20 min): 0.213 and 0.22
- OD450 ([2]; ciprofloxacin 10 ppb, pre-incubation time 5 min): 0.15 and 0.133
- OD450 ([2]; ciprofloxacin 10 ppb, pre-incubation time 10 min): 0.152 and 0.136
- OD450 ([2]; ciprofloxacin 10 ppb, pre-incubation time 15 min): 0.153 and 0.149
- OD450 ([2]; ciprofloxacin 10 ppb, pre-incubation time 20 min): 0.169 and 0.178
- OD450 ([3]; ciprofloxacin 1 ppb, re-reaction 1 min, 6 times): 0.863 and 0.813
- OD450 ([3]; ciprofloxacin 1 ppb, re-reaction time 5 min): 1.21 and 1.189
- OD450 ([3]; ciprofloxacin 1 ppb, re-reaction time 10 min): 1.517 and 1.488
- OD450 ([3]; ciprofloxacin 1 ppb, re-reaction time 20 min): 1.884 and 1.874
- OD450 ([3]; ciprofloxacin 1 ppb, re-reaction time 30 min): 2.036 and 1.989
- OD450 ([3]; ciprofloxacin 5 ppb, re-reaction 1 min, 6 times): 0.412 and 0.372
- OD450 ([3]; ciprofloxacin 5 ppb, re-reaction time 5 min): 0.706 and 0.664
- OD450 ([3]; ciprofloxacin 5 ppb, re-reaction time 10 min): 1.003 and 0.984
- OD450 ([3]; ciprofloxacin 5 ppb, re-reaction time 20 min): 1.342 and 1.343
- OD450 ([3]; ciprofloxacin 5 ppb, re-reaction time 30 min): 1.501 and 1.499
- OD450 ([3]; ciprofloxacin 10 ppb, re-reaction 1 min, 6 times): 0.302 and 0.332
- OD450 ([3]; ciprofloxacin 10 ppb, re-reaction time 5 min): 0.565 and 0.485
- OD450 ([3]; ciprofloxacin 10 ppb, re-reaction time 10 min): 0.894 and 0.749
- OD450 ([3]; ciprofloxacin 10 ppb, re-reaction time 20 min): 1.204 and 1.101
- OD450 ([3]; ciprofloxacin 10 ppb, re-reaction time 30 min): 1.269 and 1.182
- IC50 ([3]; competitive reaction with solid phase antigen in a short time after pre-reaction): 1 ppb
- IC50 ([3]; long re-reaction time (before improvement)): 10 ppb
- OD ([4]; Group 1 (20 min pre-reaction; 20 μL, 1 min, 5 times), concentration 0.05 ppb): 1.175
- OD ([4]; Group 1 (20 min pre-reaction; 20 μL, 1 min, 5 times), concentration 0.15 ppb): 0.803
- OD ([4]; Group 1 (20 min pre-reaction; 20 μL, 1 min, 5 times), concentration 0.45 ppb): 0.517
- OD ([4]; Group 1 (20 min pre-reaction; 20 μL, 1 min, 5 times), concentration 1.35 ppb): 0.324
- OD ([4]; Group 1 (20 min pre-reaction; 20 μL, 1 min, 5 times), concentration 4.05 ppb): 0.183
- OD ([4]; Group 2 (20 min pre-reaction; 100 μL, 30 min), concentration 0.05 ppb): 1.584
- OD ([4]; Group 2 (20 min pre-reaction; 100 μL, 30 min), concentration 0.15 ppb): 1.391
- OD ([4]; Group 2 (20 min pre-reaction; 100 μL, 30 min), concentration 0.45 ppb): 1.003
- OD ([4]; Group 2 (20 min pre-reaction; 100 μL, 30 min), concentration 1.35 ppb): 0.602
- OD ([4]; Group 2 (20 min pre-reaction; 100 μL, 30 min), concentration 4.05 ppb): 0.323

SMILES: O=C(N[C@H](CO)[C@H](O)c1ccc([N+](=O)[O-])cc1)C(Cl)Cl [chloramphenicol]
- B/B0 ([5]; Group 1 (20 μL/well, 1 min, 5 times), chloramphenicol standard 0.01 ppb): 0.88 and 0.89
- B/B0 ([5]; Group 1 (20 μL/well, 1 min, 5 times), chloramphenicol standard 0.03 ppb): 0.66 and 0.64
- B/B0 ([5]; Group 1 (20 μL/well, 1 min, 5 times), chloramphenicol standard 0.09 ppb): 0.49 and 0.48
- B/B0 ([5]; Group 1 (20 μL/well, 1 min, 5 times), chloramphenicol standard 0.27 ppb): 0.21 and 0.23
- B/B0 ([5]; Group 1 (20 μL/well, 1 min, 5 times), chloramphenicol standard 0.81 ppb): 0.11 and 0.17
- B/B0 ([5]; Group 2 (one-time 100 μL, 20 min), chloramphenicol standard 0.01 ppb): 0.96 and 0.94
- B/B0 ([5]; Group 2 (one-time 100 μL, 20 min), chloramphenicol standard 0.03 ppb): 0.88 and 0.89
- B/B0 ([5]; Group 2 (one-time 100 μL, 20 min), chloramphenicol standard 0.09 ppb): 0.69
- B/B0 ([5]; Group 2 (one-time 100 μL, 20 min), chloramphenicol standard 0.27 ppb): 0.46 and 0.48
- B/B0 ([5]; Group 2 (one-time 100 μL, 20 min), chloramphenicol standard 0.81 ppb): 0.28 and 0.27

Reference: patent publication US20150148249A1, “METHOD OF IMPROVING THE SENSITIVITY OF COMPETITIVE IMMUNOASSAY” (SHENZHEN BIOEASY BIOTECHNOLOGY CO., LTD, priority 2012, published 2015)
